Data: the NIST ThermoML archive (doi:10.1021/je300972a)

Experiment: refractive index (Na D-line) (dimensionless); xn = mol fraction of the nth substance listed
Details: 101 kPa, Liquid, Standard Abbe refractometry

CCCC[n+]1ccc(C)cc1.O=S(=O)([N-]S(=O)(=O)C(F)(F)F)C(F)(F)F + CCCC[n+]1ccccc1.F[B-](F)(F)F
refractive index
Details | 293.15 K | 303.15 K | 313.15 K | 323.15 K | 333.15 K | 343.15 K | 353.15 K
x2 = 0 | 1.448 | 1.4449 | 1.4419 | 1.4388 | 1.4358 | 1.4328 | 1.4298
x2 = 0.0575 | 1.4479 | 1.4448 | 1.4418 | 1.4388 | 1.4357 | 1.4328 | 1.4298
x2 = 0.1136 | 1.4477 | 1.4446 | 1.4416 | 1.4386 | 1.4356 | 1.4327 | 1.4297
x2 = 0.2311 | 1.4474 | 1.4444 | 1.4414 | 1.4385 | 1.4356 | 1.4327 | 1.4298
x2 = 0.3515 | 1.4472 | 1.4443 | 1.4414 | 1.4385 | 1.4356 | 1.4327 | 1.4299
x2 = 0.4566 | 1.4471 | 1.4441 | 1.4413 | 1.4384 | 1.4356 | 1.4328 | 1.43
x2 = 0.5692 | 1.4469 | 1.4441 | 1.4413 | 1.4385 | 1.4357 | 1.433 | 1.4302
x2 = 0.673 | 1.4468 | 1.444 | 1.4413 | 1.4385 | 1.4358 | 1.4331 | 1.4304
x2 = 0.7836 | 1.4468 | 1.4441 | 1.4413 | 1.4386 | 1.4359 | 1.4333 | 1.4306
x2 = 0.889 | 1.4469 | 1.4442 | 1.4416 | 1.4389 | 1.4362 | 1.4336 | 1.431
x2 = 0.9535 | 1.447 | 1.4443 | 1.4417 | 1.439 | 1.4364 | 1.4338 | 1.4313
